Results published in ChEMBL document CHEMBL1201862, “PubChem BioAssay data set” (2004).
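Protocol summary: plate cells (96-well), add compound at 5 concentrations, incubate 48 h, interpolate endpoints linearly. Here, GI50 denotes the concentration required for 50% inhibition of growth.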 Active and inactive are the calls of the source. No stated cut-off is given here; in the data, active = GI50 up to about 1.1 µM and inactive = higher.

Legend:
Test in all cases: inhibition of tumour cell growth, NCI panel, 48 h
[1] = tested on: UACC-257
[2] = tested on: SNB-78
[3] = tested on: UACC-62
[4] = tested on: NCI-H226
[5] = tested on: SW-620
[6] = tested on: SF-268
[7] = tested on: HCT-116
[8] = tested on: U-251
[9] = tested on: HT-29
[10] = tested on: HL-60
[11] = tested on: SN12C
[12] = tested on: SK-MEL-28
[13] = tested on: HCC 2998
[14] = tested on: OVCAR-3
[15] = tested on: RPMI-8226
[16] = tested on: NCI-H460
[17] = tested on: HOP-92
[18] = tested on: M14
[19] = tested on: DLD-1
[20] = tested on: K562
[21] = tested on: NCI-H522
[22] = tested on: OVCAR-4
[23] = tested on: A549
[24] = tested on: CCRF-CEM
[25] = tested on: SF-539
[26] = tested on: LXFL 529
[27] = tested on: EKVX
[28] = tested on: SF-295
[29] = tested on: NCI-H23
[30] = tested on: RXF 393
[31] = tested on: HOP-18
[32] = tested on: KM-20L2
[33] = tested on: SK-MEL-5
[34] = tested on: SK-OV-3
[35] = tested on: IGROV-1
[36] = tested on: KM12
[37] = tested on: UO-31
[38] = tested on: 786-0
[39] = tested on: SK-MEL-2
[40] = tested on: ACHN
[41] = tested on: M19-MEL
[42] = tested on: HOP-62
[43] = tested on: TK-10
[44] = tested on: A498
[45] = tested on: CAKI-1
[46] = tested on: SNB-75
[47] = tested on: MOLT-4
[48] = tested on: LOX IMVI
[49] = tested on: SR
[50] = tested on: COLO 205
[51] = tested on: DMS-273
[52] = tested on: OVCAR-5
[53] = tested on: OVCAR-8
[54] = tested on: DMS-114
[55] = tested on: HCT-15

## CCOc1ccc2[nH]c3c(C)c4cc[n+](C)cc4c(C)c3c2c1
[1]
  GI50: 4.25 µM (inactive)
[2]
  GI50: 0.662 µM (active)
[3]
  GI50: 2.77 µM (inactive)
[4]
  GI50: 0.451 µM (active)
[5]
  GI50: 2.05 µM (inactive)
[6]
  GI50: 0.271 µM (active)
[7]
  GI50: 3 µM (inactive)
[8]
  GI50: 0.228 µM (active)
[9]
  GI50: 3.99 µM (inactive)
[10]
  GI50: 7.85 µM (inactive)
[11]
  GI50: 0.279 µM (active)
[12]
  GI50: 3.1 µM (inactive)
[13]
  GI50: 3.27 µM (inactive)
[14]
  GI50: 3.93 µM (inactive)
[15]
  GI50: 18.3 µM (inactive)
[16]
  GI50: 1.89 µM (inactive)
[17]
  GI50: 2.5 µM (inactive)
[18]
  GI50: 8.41 µM (inactive)
[19]
  GI50: 1.66 µM (inactive)
[20]
  GI50: 2.1 µM (inactive)
[21]
  GI50: 1.11 µM (active)
[22]
  GI50: 3.61 µM (inactive)
[23]
  GI50: 1.95 µM (inactive)
[24]
  GI50: 2.88 µM (inactive)
[25]
  GI50: 0.65 µM (active)
[26]
  GI50: 0.348 µM (active)
[27]
  GI50: 4.24 µM (inactive)
[28]
  GI50: 0.25 µM (active)
[29]
  GI50: 0.838 µM (active)
[30]
  GI50: 8.71 µM (inactive)
[31]
  GI50: 4.03 µM (inactive)
[32]
  GI50: 4.95 µM (inactive)
[33]
  GI50: 1.55 µM (inactive)
[34]
  GI50: 2.92 µM (inactive)
[35]
  GI50: 2.25 µM (inactive)
[36]
  GI50: 2.4 µM (inactive)
[37]
  GI50: 20.9 µM (inactive)
[38]
  GI50: 0.255 µM (active)
[39]
  GI50: 2.42 µM (inactive)

## Cc1ccc([S+]([O-])C(C)C(Cl)c2ccccc2)cc1 (stereo not given)
[1]
  GI50: 34.7 µM (inactive)
[2]
  GI50: > 100 µM (inactive)
[40]
  GI50: > 100 µM (inactive)
[3]
  GI50: 80 µM (inactive)
[41]
  GI50: 54.3 µM (inactive)
[42]
  GI50: > 100 µM (inactive)
[4]
  GI50: > 100 µM (inactive)
[5]
  GI50: > 100 µM (inactive)
[6]
  GI50: > 100 µM (inactive)
[7]
  GI50: > 100 µM (inactive)
[8]
  GI50: 35.6 µM (inactive)
[43]
  GI50: > 100 µM (inactive)
[9]
  GI50: 38.8 µM (inactive)
[44]
  GI50: > 100 µM (inactive)
[11]
  GI50: > 100 µM (inactive)
[12]
  GI50: > 100 µM (inactive)
[13]
  GI50: > 100 µM (inactive)
[14]
  GI50: 53.7 µM (inactive)
[45]
  GI50: > 100 µM (inactive)
[15]
  GI50: 35.9 µM (inactive)
[16]
  GI50: > 100 µM (inactive)
[17]
  GI50: > 100 µM (inactive)
[18]
  GI50: > 100 µM (inactive)
[19]
  GI50: > 100 µM (inactive)
[20]
  GI50: 45.8 µM (inactive)
[21]
  GI50: 28.9 µM (inactive)
[22]
  GI50: > 100 µM (inactive)
[46]
  GI50: 48.6 µM (inactive)
[24]
  GI50: 47.6 µM (inactive)
[25]
  GI50: > 100 µM (inactive)
[26]
  GI50: 81.1 µM (inactive)
[47]
  GI50: 55.7 µM (inactive)
[28]
  GI50: 86.7 µM (inactive)
[48]
  GI50: > 100 µM (inactive)
[29]
  GI50: 72.3 µM (inactive)
[49]
  GI50: 99.3 µM (inactive)
[30]
  GI50: 53.7 µM (inactive)
[31]
  GI50: > 100 µM (inactive)
[32]
  GI50: > 100 µM (inactive)
[50]
  GI50: 30.7 µM (inactive)
[33]
  GI50: 43.6 µM (inactive)
[51]
  GI50: > 100 µM (inactive)
[52]
  GI50: > 100 µM (inactive)
[53]
  GI50: 78 µM (inactive)
[34]
  GI50: > 100 µM (inactive)
[35]
  GI50: 60.4 µM (inactive)
[37]
  GI50: > 100 µM (inactive)
[54]
  GI50: 28.2 µM (inactive)
[55]
  GI50: > 100 µM
[38]
  GI50: > 100 µM (inactive)
[39]
  GI50: > 100 µM (inactive)
